# Assay results published in patent US9718828B2 (MERCK SHARP & DOHME CORP., priority 2011, dated 2017).
# Structures can show the parent of a compound that is named as a salt.
# Biological target: Btk enzyme (His-Btk) (Homo sapiens (Human), UniProt Q06187)
# Assay: Btk enzyme activity, IMAP fluorescence polarization assay (Assay Method A)
# Conditions: not given
# Btk enzyme (His-Btk), sequence (Q06187 whole entry): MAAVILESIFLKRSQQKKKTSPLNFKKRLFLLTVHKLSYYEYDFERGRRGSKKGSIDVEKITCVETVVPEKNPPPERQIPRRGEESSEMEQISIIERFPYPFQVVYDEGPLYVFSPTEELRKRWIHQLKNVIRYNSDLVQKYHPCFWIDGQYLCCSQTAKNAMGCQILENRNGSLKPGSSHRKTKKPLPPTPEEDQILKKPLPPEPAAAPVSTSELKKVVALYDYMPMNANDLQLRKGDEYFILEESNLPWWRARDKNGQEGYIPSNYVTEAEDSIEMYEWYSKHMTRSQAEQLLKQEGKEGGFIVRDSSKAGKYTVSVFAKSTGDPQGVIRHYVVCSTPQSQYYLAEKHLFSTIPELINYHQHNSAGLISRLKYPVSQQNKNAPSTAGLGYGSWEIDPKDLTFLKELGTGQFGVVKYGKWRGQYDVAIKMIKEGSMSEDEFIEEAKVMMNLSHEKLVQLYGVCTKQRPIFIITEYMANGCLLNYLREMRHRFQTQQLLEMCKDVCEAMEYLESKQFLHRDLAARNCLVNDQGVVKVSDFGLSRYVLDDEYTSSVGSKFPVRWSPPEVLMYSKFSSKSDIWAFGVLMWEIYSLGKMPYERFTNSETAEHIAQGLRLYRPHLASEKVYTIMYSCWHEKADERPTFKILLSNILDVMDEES
row,Compound,EC50 [nM]
1,"CC1(C(=O)N2CCC[C@@H](c3nc(-c4ccc(C(=O)Nc5cc(C#N)ccn5)cc4)c4c(N)nccn34)C2)COC1 [Example 99, (R)-4-(8-amino-3-(1-(3-methyloxetane-3 carbonyl)piperidin-3-yl)imidazo[1,5-a]pyrazin-1-yl)-N-(4-cyanopyridin-2-yl)benzamide]",< 10
2,"CCN1CCC[C@@H](c2nc(-c3ccc(C(=O)Nc4cc(C(F)(F)F)ccn4)cc3)c3c(N)nccn23)C1 [Example 138, (R)-4-(8-amino-3-(1-ethylpiperidin-3-yl)imidazo[1,5-a]pyrazin-1-yl)-N-(4-(trifluoromethyl)pyridin-2-yl)benzamide, TFA salt]",10 to 100
3,"Nc1ncnc2c1c(-c1ccc(C(=O)Nc3cc(C(F)(F)F)ccn3)cc1)nn2[C@@H]1CCCN(C(=O)C(F)(F)F)C1 [Example 274, (R)-4-(4-amino-1-(1-(2,2,2-trifluoroacetyl)piperidin-3-yl)-1H-pyrazolo[3,4-d]pyrimidin-3-yl)-N-(4-(trifluoromethyl)pyridin-2-yl)benzamide]",10 to 100
4,"CO[C@H]1CC[C@@H](c2nc(-c3ccc(C(=O)Nc4cc(C#N)ccn4)cc3)c3c(N)nccn32)CC1 [Example 41, 4-(8-amino-3-((cis)-4-methoxycyclohexyl)imidazo [1,5-a]pyrazin-1-yl)-N-(4-cyanopyridin-2-yl)benzamide]",< 10
5,"[2H]C([2H])([2H])c1cnc(N)c2c(-c3ccc(C(=O)Nc4cc(C(F)(F)F)ccn4)cc3)nc([C@@H]3CCCN(C(=O)C4(C)COC4)C3)n12 [Example 317, (R)-4-(8-amino-5-deuteromethyl-3-(1-(3-methyloxetane-3-carbonyl)piperidin-3-yl)imidazo[1,5-a]pyrazin-1-yl)-N-(4-(trifluoromethyl)pyridin-2-yl)benzamide]",< 10
6,"Nc1nccn2c([C@@H]3CCCN(CCc4ccccc4)C3)nc(-c3ccc(C(=O)Nc4ccccn4)cc3)c12 [Example 134, (R)-4-(8-amino-3-(1-phenethylpiperidin-3-yl)imidazo[1,5-a]pyrazin-1-yl)-N-(pyridin-2-yl)benzamide, TFA salt]",10 to 100

# Other lines, results leading:
row,EC50 [nM],Compound
1,10 to 100,"CC[C@H](C)C(=O)N1CCC[C@@H](c2nc(-c3ccc(C(=O)Nc4ccccn4)cc3)c3c(N)nccn23)C1 [Example 58, 4-(8-amino-3-((R)-1-((S)-2-methylbutanoyl)piperidin-3-yl)imidazo[1,5-a]pyrazin-1-yl)-N-(pyridin-2-yl)benzamide]"
2,100 to 1000,"CCCc1ccnc(NC(=O)c2ccc(-c3nc(C)n4c(C(=O)NCCCOC)cnc(N)c34)cc2)c1 [Example 294, 8-amino-N-(3-methoxypropyl)-3-methyl-1-(4-(4-propylpyridin-2-ylcarbamoyl)phenyl)imidazo[1,5-a]pyrazine-5-carboxamide]"
3,< 10,"CC(CNC(=O)C1(C)COC1)c1nc(-c2ccc(C(=O)Nc3cc(C(F)(F)F)ccn3)cc2)c2c(N)nccn12 (stereo not shown) [Example 131, N-(2-(8-amino-1-(4-(4-(trifluoromethyl)pyridin-2-ylcarbamoyl)phenyl)imidazo[1,5-a]pyrazin-3-yl)propyl)-3-methyloxetane-3-carboxamide]"
4,10 to 100,"CC(CNC(=O)OCc1ccccc1)c1nc(-c2ccc(C(=O)Nc3cc(C(F)(F)F)ccn3)cc2)c2c(N)nccn12 (stereo not shown) [Example 132, benzyl 2-(8-amino-1-(4-(4-(trifluoromethyl)pyridin-2-ylcarbamoyl)phenyl)imidazo[1,5-a]pyrazin-3-yl)propylcarbamate]"
5,100 to 1000,"CCN(CC)c1nc(-c2ccc(C(=O)Nc3ccccn3)cc2)c2c(N)nccn12 [Example 213, 4-(8-amino-3-(diethylamino)imidazo[1,5-a]pyrazin-1-yl)-N-(pyridin-2-yl)benzamide]"
6,< 10,"Nc1nccn2c([C@@H]3CCCN(C(=O)[C@H]4CC(=O)N4)C3)nc(-c3ccc(C(=O)Nc4cc(C(F)(F)F)ccn4)cc3)c12 [Example 87, 4-(8-amino-3-((R)-1-((R)-4-oxoazetidine-2-carbonyl)piperidin-3-yl)imidazo[1,5-a]pyrazin-1-yl)-N-(4-(trifluoromethyl)pyridin-2-yl)benzamide]"
7,10 to 100,"CC(C)CNC(=O)C(=O)N1CCC[C@@H](c2nc(-c3ccc(C(=O)Nc4cc(C5CC5)ccn4)cc3)c3c(N)nccn23)C1 [Example 112, (R)-4-(8-amino-3-(1-(2-(isobutylamino)-2-oxoacetyl)piperidin-3-yl)imidazo[1,5-a]pyrazin-1-yl)-N-(4-cyclopropylpyridin-2-yl)benzamide]"
8,< 10,"Nc1nccn2c([C@@H]3CCCN(C(=O)C4CSC4)C3)nc(-c3ccc(C(=O)Nc4cc(C(F)(F)F)ccn4)cc3)c12 [Example 86, (R)-4-(8-amino-3-(1-(thietane-3-carbonyl)piperidin-3-yl)imidazo[1,5-a]pyrazin-1-yl)-N-(4-(trifluoromethyl)pyridin-2-yl)benzarnide]"
9,100 to 1000,"COCCC(=O)N1CCC[C@@H](c2nc(-c3ccc(C(=O)Nc4ccccn4)cn3)c3c(N)nccn23)C1 [Example 288, (R)-6-(8-amino-3-(1-(3-methoxypropanoyl)piperidin-3-yl)imidazo[1,5-a]pyrazin-1-yl)-N-(pyridin-2-yl) nicotinamide]"

# Same assay, conditions: read-out: EC50 Btk activity values - Assay Method A
row,Compound,EC50 [nM]
1,"Nc1nccn2c([C@@H]3CCCN(C(=O)OCc4ccccc4)C3)nc(-c3ccc(C(=O)Nc4cc(C(F)(F)F)ccn4)cc3)c12 [Example 107, (R)-benzyl 3-(8-amino-1-(4-(4-(trifluoromethyl)pyridin-2-ylcarbamoyl)phenyl)imidazo[1,5-a]pyrazin-3-yl)piperidine-1-carboxylate]",< 10

# Same assay, conditions: read-out: EC50 Btk activity values - Assay Method A; IMAP-FP, 60 min pre-incubation, 5 μM ATP; class 100-1000 is given as ≧100 nM-<1 μM
row,Compound,EC50 [nM]
1,"Nc1nccn2c(N3CCCC(C(=O)N4CCCC(F)(F)C4)C3)nc(-c3ccc(C(=O)Nc4cc(C(F)(F)F)ccn4)cc3)c12 (stereo not shown) [Example 243, 4-(8-amino-3-(3-(3,3-difluoropiperidine-1-carbonyl)piperidin-1-yl)imidazo[1,5-a]pyrazin-1-yl)-N-(4-(trifluoromethyl)pyridin-2-yl)benzamide, TFA salt]",< 10
2,"CCOC(=O)N1C[C@H](c2nc(-c3ccc(C(=O)Nc4cc(C5CC5)ccn4)cc3)c3c(N)nccn23)CC[C@@H]1C (relative stereo) [Example 199, (cis)-ethyl 5-(8-amino-1-(4-(4-cyclopropylpyridin-2-ylcarbamoyl)phenyl)imidazo [1,5-a]pyrazin-3-yl)-2-methylpiperidine-1-carboxylate, TFA salt]",< 10
3,"Nc1nccn2c1c(-c1ccc(C(=O)Nc3cc(-c4ccccc4)ccn3)cc1)nc2[C@H]1CC[C@H](O)CC1 [Example 20, 4-(8-amino-3-((trans)-4-hydroxycyclohexyl)imidazo[1,5-a]pyrazin-1-yl)-N-(4-phenylpyridin-2-yl)benzamide]",< 10
4,"Nc1ncc(/C=C/c2ccccc2)n2c(C3CCOCC3)nc(-c3ccc(C(=O)Nc4ccccn4)cc3)c12 [Example 313, (E)-4-(8-amino-5-styryl-3-(tetrahydro-2H-pyran-4-yl)imidazo[1,5-a]pyrazin-1-yl)-N-(pyridin-2-yl)benzamide]",< 10
5,"Cn1cc(CN2CCC[C@@H](c3nc(-c4ccc(C(=O)Nc5ccccn5)cc4)c4c(N)nccn34)C2)cn1 [Example 135, (R)-4-(8-amino-3-(1-((1-methyl-1H-pyrazol-4-yl)methyl)piperidin-3-yl)imidazo[1,5-a]pyrazin-1-yl)-N-(pyridin-2-yl)benzamide, TFA salt]",< 10

# The remaining lines, values ahead:
row,EC50 [nM],Compound
1,< 10,"COC[C@H](C)NC(=O)C1CCCN(c2nc(-c3ccc(C(=O)Nc4ccccn4)cc3)c3c(N)nccn23)C1 (stereo partly drawn) [Example 235, 1-(8-amino-1-(4-(pyridin-2-ylcarbamoyl)phenyl)imidazo[1,5-a]pyrazin-3-yl)-N-((S)-1-methoxypropan-2-yl)piperidine-3-carboxamide, TFA salt]"
2,< 10,"CC1(C(=O)N2CCC[C@@H](c3nc(-c4ccc(C(=O)Nc5cc(C(F)(F)F)ccn5)cc4)c4c(N)ncnn34)C2)COC1 [Example 261, (R)-4-(4-amino-7-(1-(3-methyloxetane-3-carbonyl)piperidin-3-yl)imidazo[1,5-f][1,2,4]triazin-5-yl)-N-(4-(trifluoromethyl)pyridin-2-yl)benzamide]"
3,< 10,"COCCC(=O)N1CCOC(c2nc(-c3ccc(C(=O)Nc4cc(C(F)(F)F)ccn4)cc3)c3c(N)ncc(Cl)n23)C1 (stereo not shown) [Example 314, 4-(8-amino-5-chloro-3-(4-(3-methoxypropanoyl)morpholin-2-yl)imidazo[1,5-a]pyrazin-1-yl)-N-(4-(trifluoromethyl)pyridin-2-yl)benzamide]"
4,< 10,"CCCc1ccnc(NC(=O)c2ccc(-c3nc(C4CCOC(C)(C)C4)n4ccnc(N)c34)cc2)c1 (stereo not shown) [Example 36, 4-(8-amino-3-(2,2-dimethyltetrahydro-2H-pyran-4-yl)imidazo[1,5-a]pyrazin-1-yl)-N-(4-propylpyridin-2-yl)benzamide]"
5,< 10,"CCC(=O)NCC(C)c1nc(-c2ccc(C(=O)Nc3cc(C(F)(F)F)ccn3)cc2)c2c(N)nccn12 (stereo not shown) [Example 130, 4-(8-amino-3-(1-propionamidopropan-2-yl)imidazo[1,5-a]pyrazin-1-yl)-N-(4-(trifluoromethyl)pyridin-2-yl)benzamide]"
6,< 10,"C[C@H]1CC[C@@H](c2nc(-c3ccc(C(=O)Nc4cc(C(F)(F)F)ccn4)cc3)c3c(N)nccn23)CN1C(=O)C1CC1 (relative stereo) [Example 202, 4-(8-amino-3-((cis)-1-(cyclopropanecarbonyl)-6-methylpiperidin-3-yl)imidazo[1,5-a]pyrazin-1-yl)-N-(4-(trifluoromethyl)pyridin-2-yl)benzamide, TFA salt]"
7,< 10,"CCC(=O)N[C@H]1CCC[C@@H](c2nc(-c3ccc(C(=O)Nc4cc(C(F)(F)F)ccn4)cc3)c3c(N)nccn23)C1 (relative stereo) [Example 161, 4-(8-amino-3-((cis)-3-propionamidocyclohexyl)imidazo[1,5-a]pyrazin-1-yl)-N-(4-(trifluoromethyl)pyridin-2-yl)benzamide]"
